Results: US11260047B2, “Formulations of AG10” (Eidos Therapeutics, Inc., priority 2018, dated 2022)

How the values were obtained:
Type in all cases: in vivo
[1] = Pharmacokinetics of AG10 in dogs, oral gavage, Study No. 1; details: both sexes, dog, plasma
Protocol: Pharmacokinetics of AG10 were determined when administered once daily to dogs via oral gavage at 20, 60, and 200 mg/kg for 3 days (Study No. 1). Each group consisted of two animals/sex/group. Blood samples were collected from each animal on Day 1 at pre-dose, 0.25, 0.5, 1, 2, 4, 8, 12 and 24 hours post-dose, Day 3 at pre-dose, 0.25, 0.5, 1, 2, 4, 8, 12, 24, 48 and 72 hr post-dose. Plasma samples were assayed for AG10 by LC-MS/MS. In general, no sex differences in AG10 mean Cmax and AUC0-24 values were observed; therefore, results for the 20 mg/kg dose group are presented as combined sex values in Table 1 below.

[2] = Pharmacokinetics of AG10 tablets and capsule given orally to male beagle dogs, Study No. 3; details: for Tmax / Cmax / AUC(0-t): male, beagle, dog, plasma, po; for Tmax: dogs, read-out: time to maximal concentration (T max); for Cmax / AUC(0-t): male dogs; for AUC(0-t): read-out: AUC0-24
Protocol: AG10 was administered orally to 4 male beagle dogs each as a 50 mg tablet, 200 mg tablet, and a 200 mg capsule (No. 3). Blood samples were collected at pre-dose and approximately 0.25, 0.5, 1, 2, 4, 8, 24, 48, 72 and 96 hours post-dose. Plasma samples were assayed for AG10 by LC-MS/MS.

[3] = Pharmacokinetics of AG10 after oral administration in beagle dogs, Study No. 2; details: both sexes, dog, plasma, 20 mg/kg; for Cmax / AUC(0-t): 20 mg/kg oral, sex MF; for AUC(0-t): read-out: AUC0-24; for Tmax: read-out: time to maximal concentration (T max)
Protocol: The pharmacokinetics of AG10 were also determined following oral administration in non-naïve male and female beagle dogs (Study No. 2). The study design included three treatment groups (n=2/sex/group). Groups 1 and 2 received 5 mg/kg and 20 mg/kg AG10 in 0.5% methylcellulose (MC) formulations respectively. Group 3 animals received 20 mg/kg AG10 in gelatin capsule form. Blood samples were collected at pre-dose and approximately 2, 4, 6, 8, 12, and 24 hours post-dose. Plasma samples were assayed for AG10 by LC-MS/MS. Plasma exposures (AUC0-24) of AG10 in dogs administered 20 mg/kg AG10 as a suspension in 0.5% methylcellulose were similar to those obtained in Study No. 1 (Table 1). Plasma exposures of AG10 were also similar in dogs which were administered the same dose of AG10 either as a suspension in 0.5% methylcellulose or as a gelatin capsule without any excipients.

[4] = gelatin capsule without excipients

Cmax ([1]; 0.5% MC formulation, 20 mg/kg oral gavage, sex MF combined): 16100 ng/mL | AUC(0-t) ([1]; 0.5% MC formulation, 20 mg/kg oral gavage, sex MF combined, read-out: AUC0-24): 69100 ng·h/mL | Tmax ([1]; po, 20 mg/kg, methylcellulose formulation, read-out: time to maximal concentration (T max)): 0.44 ± 0.38 h | Tmax ([2]; 50 mg, 50 mg tablets): 0.5 h | Cmax ([2]; 50 mg, tablet 50 mg oral): 4660 ng/mL | AUC(0-t) ([2]; 50 mg, tablet 50 mg oral): 41500 ng·h/mL | Tmax ([2]; 200 mg, 200 mg capsules with excipient): 1.38 ± 0.75 h | Tmax ([2]; 200 mg, 200 mg tablets): 1 h | Cmax ([2]; 200 mg, capsule 200 mg oral): 9330 ng/mL | AUC(0-t) ([2]; 200 mg, capsule 200 mg oral): 65700 ng·h/mL | Cmax ([2]; 200 mg, tablet 200 mg oral): 13000 ng/mL | AUC(0-t) ([2]; 200 mg, tablet 200 mg oral): 88000 ng·h/mL | Cmax, 200 mg tablets compared with 200 mg capsules ([2]; unpaired t-test, P value 0.0788): not significantly different | AUC0-inf, 200 mg tablets compared with 200 mg capsules ([2]; unpaired t-test, P value 0.0995): not significantly different | Cmax ([3]; 0.5% MC formulation): 8100 ng/mL | AUC(0-t) ([3]; 0.5% MC formulation): 71200 ng·h/mL | Tmax ([3]; capsule formulated without excipients): 2 h | Cmax [3, 4]: 10300 ng/mL | AUC(0-t) [3, 4]: 89300 ng·h/mL | Tmax ([3]; methylcellulose formulation): 2.5 ± 1 h
SMILES: Cc1n[nH]c(C)c1CCCOc1cc(C(=O)O)ccc1F [AG10, 3-(3-(3,5-dimethyl-1H-pyrazol-4-yl)propoxy)-4-fluorobenzoic acid]
